Source: patent US6623741B1, “Methods and compositions for inhibition of membrane fusion-associated events including RSV transmission” (Trimeris, Inc., priority 2000, dated 2003)
“Also recorded” adds a separate entry of the source. Like-named read-outs stand apart in the source and are kept apart here.

How the values were obtained:
HIV-1IIIB [1] = assay type: cell-based; conditions: for IC90: HIV-1 induced membrane fusion, read-out: Cell Fusion (IC90)
Experimental: Cell Fusion Assays For Anti-HIV Activity:
Cell fusion assays were performed as previously described (Matthews et al., 1987, Proc. Natl. Acad. Sci. USA 84: […]). CEM cells (7×10^4) were incubated with HIV-1IIIB chronically infected CEM cells (10^4) in 96-well flat-bottomed half-area plates (Costar) in 100 μl culture medium. Peptide and fusion proteins at various concentrations in 10 μl culture medium were incubated with the cell mixtures at 37° C. for 24 hours. Multinucleated syncytia were estimated with microscopic examination.

HIV-1IIIB [2] = test system: HIV-1IIIB
[3] = molecular target: T1, M41Δ178 fusion protein (DP107 domain of HIV gp41) (Human immunodeficiency virus type 1 group M subtype B, UniProt P03377); test: biochemical; assay type: binding, HIV-1
T1 construct: made by cloning the DNA fragment corresponding to gp41 amino acids 540-642 into the Xmn I site of pMal-p2; made in house
Experimental: (§1) After incubation and washing, unbound Fab-d is removed from the plates and bound Fab-d is quantitated. A no-inhibitor control should also be conducted.
(§2) Such an assay takes advantage of accepted radioligand and receptor binding principles. (See, for example, Yamamura, H. I. et al., 1985, “Neurotransmitter Receptor Binding”, 2nd ed., Raven Press, NY.) As above, M41Δ78 is immobilized onto a solid support such as a microtiter well. […] Specific binding to M41Δ78 is defined as the difference of the binding of the labeled DP178 preparation in the microtiter wells (totals) and the binding in identical wells containing, in addition, excess unlabeled DP178 (nonspecifics).

CEM cells = test: Cell proliferation and toxicity assay; assay type: cell-based
Experimental: (§3) Cell proliferation and toxicity assay: Approximately 3.8×10^5 CEM cells for each peptide concentration were incubated for 3 days at 37° C. in T25 flasks. Peptides tested were DP178 (SEQ ID NO:15) and DP-116 (SEQ ID NO:1552), as described in FIG. 1. Peptides were synthesized as described, above, in Section 6.1. The concentrations of each peptide used were 0, 2.5, 10, and 40 μg/ml. Cell counts were taken at incubation times of 0, 24, 48, and 72 hours.
(§4) CEM cells were incubated in the presence of varying concentrations of DP178 (SEQ ID NO:15), and DP-116 (SEQ ID NO:1552), a peptide previously shown to be ineffective as an HIV inhibitor (Wild, C. et al., 1992, Proc. Natl. Acad. Sci. USA 89:10,537-10,541). Additionally, cells were incubated in the absence of either peptide.

[4] = molecular target: T2, DP107-like domain of the RSV F1-protein (MF5.1 fusion protein) (Human respiratory syncytial virus A, UniProt P03420); test: biochemical; assay type: binding
T2 construct: made in house
Experimental: as §1, §2
Specifically, the DNA sequence corresponding amino acid residues 142-302 of the RSV F1 protein was amplified by PCR and cloned into the Xmn I site of the expression vector pMal-p2 (New England Biolab) to give MF5.1. These amino acid residues correspond to the extracellular domain of the RSV F1 protein including its DP107 region but excluding the DP178 region.
Cell fusion assays were performed with each of the peptides as described in Section 17 above.

HIV-2 = test: Cell fusion assay: HIV-2 mediated syncytia formation; assay type: cell-based
From the text: (§5) The next series of experiments involved a comparison of DP178 (SEQ ID NO:15) HIV-1 and HIV-2 inhibitory activity.

[5] = test system: HIV-1 (HIV-1LAI, HIV-1MN, HIV-1RF, HIV-1SF2); assay type: cell-based
Experimental: Approximately 7×10^4 Molt cells were incubated with 1×10^4 CEM cells chronically infected with the HIV-1LAI virus in 96-well plates (one-half area cluster plates; Costar, Cambridge, Mass.) in a final volume of 100 μl culture medium as previously described (Matthews, T. J. et al., 1987, Proc. Natl. Acad. Sci. USA 84: 5424-5428). Peptide inhibitors were added in a volume of 10 μl and the cell mixtures were incubated for 24 hr. at 37° C. At that time, multinucleated giant cells were estimated by microscopic examination at a 40× magnification which allowed visualization of the entire well in a single field.
The initial screen for antiviral activity assayed peptides' ability to block syncytium formation induced by overnight co-cultivation of uninfected Molt 4 cells with chronically HIV-1 infected CEM cells. […] In the first of these experiments, serial DP178 (SEQ ID NO:15) peptide concentrations between 10 μg/ml and 12.5 ng/ml were tested for blockade of the cell fusion process. For these experiments, CEM cells chronically infected with either HIV-1LAI, HIV-1MN, HIV-1RF, or HIV-1SF2 virus were cocultivated overnight with uninfected Molt 4 cells.
The next series of experiments involved the preparation and testing of a DP178 (SEQ ID NO:15) homolog for its ability to inhibit HIV-1-induced syncytia formation.
as §5

HIV-2NIHZ = test: Cell free virus infection assay (RT production, CEM cells); assay type: cell-based
Experimental: (§6) Synthetic peptides were incubated at 37° C. with either 247 TCID50 (for experiment depicted in FIG. 2), or 62 TCID50 (for experiment depicted in FIG. 3) units of HIV-1LAI virus or 25 TCID50 units of HIV-2^NIHZ and CEM CD4^+ cells at peptide concentrations of 0, 0.04, 0.4, 4.0, and 40 μg/ml for 7 days. The resulting reverse transcriptase (RT) activity in counts per minute was determined using the assay described, below, in Section 6.1.5. See, Reed, L. J. et al., 1938, Am. J. Hyg. 27: 493-497 for an explanation of TCID50 calculations.
The micro-reverse transcriptase (RT) assay was adapted from Goff et al. (Goff, S. et al., 1981, J. Virol. 38:239-248) and Willey et al. (Willey, R. et al., 1988, J. Virol. 62:139-147). Supernatants from virus/cell cultures are adjusted to 1% Triton-X100. A 10 μl sample of supernatant was added to 50 μl of RT cocktail in a 96-well U-bottom microtitre plate and the samples incubated at 37° C. for 90 min. The RT cocktail contained 75 mM KCl, 2 mM dithiothreitol, 5 mM MgCl2, 5 μg/ml poly A (Pharmacia, cat. No. 27-4110-01), 0.25 units/ml oligo dT (Pharmacia, cat. No. 27-7858-01), 0.05% NP40, 50 mM Tris-HCl, pH 7.8, 0.5 μM non-radioactive dTTP, and 10 μCi/ml ^32P-dTTP (Amersham, cat. No. PB. 10167). […]

HIV-1LAI = conditions: for IC50 (RT production): CEM cells, 7 days
Experimental: Cell Free Virus Infection Assay:
as §6
Reverse Transcriptase Assay:
The micro-reverse transcriptase (RT) assay was adapted from Goff et al. (Goff, S. et al., 1981, J. Virol. 38:239-248) and Willey et al. (Willey, R. et al., 1988, J. Virol. 62:139-147). Supernatants from virus/cell cultures are adjusted to 1% Triton-X100. A 10 μl sample of supernatant was added to 50 μl of RT cocktail in a 96-well U-bottom microtitre plate and the samples incubated at 37° C. for 90 min. The RT cocktail contained 75 mM KCl, 2 mM dithiothreitol, 5 mM MgCl2, 5 μg/ml poly A (Pharmacia, cat. No. 27-4110-01), 0.25 units/ml oligo dT (Pharmacia, cat. No. 27-7858-01), 0.05% NP40, 50 mM Tris-HCl, pH 7.8, 0.5 μM non-radioactive dTTP, and 10 μCi/ml ^32P-dTTP (Amersham, cat. No. PB. 10167).
After the incubation period, 40 μl of reaction mixture was applied to a Schleicher and Schuell (S+S) NA45 membrane (or DE81 paper) saturated in 2×SSC buffer (0.3 M NaCl and […] sodium citrate) held in a S+S Minifold over one sheet of GB003 (S+S) filter paper, with partial vacuum applied. Each well of the minifold was washed four times with 200 μl 2×SSC, under full vacuum. The membrane was removed from the minifold and washed 2 more times in a pyrex dish with an excess of 2×SSC. Finally, the membrane was drained on absorbent paper, placed on Whatman #3 paper, covered with Saran wrap, and exposed to film overnight at −70° C.
DP178 (SEQ ID NO:15) was next tested for its ability to block CD-4^+ CEM cell infection by cell-free HIV-1 virus. […]

[6] = test system: Fab-d (human recombinant Fab); test: ELISA analysis of Fab-d binding / DP178 binding to the leucine zipper motif of gp41; conditions: reagent alone
Experimental: ELISA Analysis of DP178 Binding to the Leucine Zipper Motif of gp41:
Each well was washed three times with distilled water then blocked with 3% bovine serum albumin (BSA) for 2 hours. After blocking, peptides with 0.5% BSA in TBST (40 mM Tris-HCl pH7.5, 150 mM NaCl, 0.05% Tween 20) were added to the ELISA plates and incubated at room temperature for 1 hour. After washing three times with TBST, Fab-d was added at a concentration of 10 ng/ml with 0.5% BSA in TBST. The plates were washed three times with TBST after incubation at room temperature for 1 hour. Horseradish peroxidase (HRP) conjugated goat antihuman Fab antiserum at a 2000 fold dilution in TBST with 0.5% BSA was added to each well and incubated at room temperature for 45 minutes. The plates were then washed four times with TBST. The peroxidase substrate o-phenylene diamine (2.5 mg/ml) and 0.15% H2O2 were added to develop the color. The reaction was stopped with an equal volume of 4.5 N H2SO4 after incubation at room temperature for 10 minutes. The optical density of the stopped reaction mixture was measured with a micro plate reader (Molecular Design) at 490 nm.

[7] = Cell proliferation and toxicity assay; assay type: cell-based; conditions: human, CEM cells
Experimental: as §3, §4

T1 sequence (P03377 540-642, stated change not applied): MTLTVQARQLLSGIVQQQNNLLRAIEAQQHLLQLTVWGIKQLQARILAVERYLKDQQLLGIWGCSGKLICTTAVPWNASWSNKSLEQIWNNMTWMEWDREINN
T2 sequence (P03420 142-302): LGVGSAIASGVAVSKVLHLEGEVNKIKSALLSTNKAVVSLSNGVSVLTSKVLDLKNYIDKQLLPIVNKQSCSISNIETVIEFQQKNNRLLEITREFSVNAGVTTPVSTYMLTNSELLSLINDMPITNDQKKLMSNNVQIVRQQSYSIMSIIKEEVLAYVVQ

Substance: Ac-NNLLRAIEAQQHLLQLTVWGIKQLQARILAVERYLKDQ-NH2 [DP107]
- IC90 (HIV-1IIIB [1]): 1 µM
- IC90 (HIV-1IIIB [2]; read-out: HIV-infectivity (IC90), HIV-1IIIB): 1 µM

Substance: enfuvirtide
- Kd [3]: 0.01 µM
- % Viability (CEM cells; 2.5 μg/ml, 0 hours): 98%
- % Viability (CEM cells; 2.5 μg/ml, 24 hours): 93%
- % Viability (CEM cells; 2.5 μg/ml, 48 hours): 96%
- % Viability (CEM cells; 2.5 μg/ml, 72 hours): 96%
- % Viability (CEM cells; 10 μg/ml, 0 hours): 98%
- % Viability (CEM cells; 10 μg/ml, 24 hours): 97%
- % Viability (CEM cells; 10 μg/ml, 48 hours): 98%
- % Viability (CEM cells; 10 μg/ml, 72 hours): 98%
- % Viability (CEM cells; 40 μg/ml, 0 hours): 98%
- % Viability (CEM cells; 40 μg/ml, 24 hours): 97%
- % Viability (CEM cells; 40 μg/ml, 48 hours): 95%
- % Viability (CEM cells; 40 μg/ml, 72 hours): 97%
- cytotoxic effects on cells in culture (CEM cells; CEM cells, up to 40 μg/ml, 3 days): non-cytotoxic; also recorded: no cytotoxic effects

Substance: Ac-VYPSDEFDASISQVNEKINQALAYIRKADELLHNV-NH2 [Peptide T1091]
- binding affinity relative to T112 [4]: approximately ten-fold less

Substance: Enfuvirtide
- selectivity as inhibitor of HIV-1-mediated over HIV-2 mediated cell fusion (HIV-2): 4 log
- concentration failing to block HIV-2 mediated syncytia formation (HIV-2; FIG. 5): > 10 µg/mL
- concentration affording complete protection against syncytium formation (lowest concentration tested) ([5]; HIV-1LAI infected CEM + Molt 4 cells): ≤ 12.5 ng/mL
- concentration affording complete protection against syncytium formation (lowest concentration tested) ([5]; HIV-1MN, HIV-1RF, HIV-1SF2 infected CEM + Molt 4 cells): ≤ 100 ng/mL
- concentration completely blocking virus-induced syncytia formation (lowest effective inhibitory concentration) ([5]; HIV-1 mediated CD-4+ cell-cell fusion): 1 to 10 ng/mL
- concentration blocking HIV-1-mediated syncytia formation ([5]; HIV-1 vs HIV-2 comparison, FIG. 5): below 1 ng/ml
- syncytia in the presence of the peptide (HIV-1IIIB [1]; 10 nM): no observable syncytia
- IC90 (HIV-1IIIB [1]): 0.001 µM
- IC50 for HIV-2NIHZ (in words) (HIV-2NIHZ; 25 TCID50 HIV-2NIHZ, CEM cells, 7 days): much higher IC50
- potency as HIV-1 inhibitor versus HIV-2 inhibitor (HIV-2NIHZ; cell-free infection): two logs more potent
- IC50 (RT production) (HIV-1LAI; 62 TCID50 HIV-1LAI): about 31 ng/ml
- IC50 (RT production) (HIV-1LAI; 247 TCID50 HIV-1LAI): 0.09 µg/mL
- Fab-d binding (in words) [6]: failed to bind
- IC90 (HIV-1IIIB [2]; 1IIIB): 0.08 µM

Substance: Ac-LQARILAVERYLKDQQQ-NH2 [DP-116, reference compound]
- inhibition of HIV-1 cell free virus infection (in words) (HIV-1LAI; FIG. 1 legend): negative for inhibition of HIV-1 infection
- viability at 0 h, 2.5 µg/mL ([7]; 2.5 μg/ml, 0 hours): 98%
- viability at 24 h, 2.5 µg/mL ([7]; 2.5 μg/ml, 24 hours): 96%
- viability at 48 h, 2.5 µg/mL ([7]; 2.5 μg/ml, 48 hours): 98%
- viability at 72 h, 2.5 µg/mL ([7]; 2.5 μg/ml, 72 hours): 99%
- viability at 0 h, 10 µg/mL ([7]; 10 μg/ml, 0 hours): 98%
- viability at 24 h, 10 µg/mL ([7]; 10 μg/ml, 24 hours): 95%
- viability at 48 h, 10 µg/mL ([7]; 10 μg/ml, 48 hours): 93%
- viability at 72 h, 10 µg/mL ([7]; 10 μg/ml, 72 hours): 98%
- viability at 0 h, 40 µg/mL ([7]; 40 μg/ml, 0 hours): 98%
- viability at 24 h, 40 µg/mL ([7]; 40 μg/ml, 24 hours): 95%
- viability at 48 h, 40 µg/mL ([7]; 40 μg/ml, 48 hours): 98%
- viability at 72 h, 40 µg/mL ([7]; 40 μg/ml, 72 hours): 97%
